In series [1] the test system is EC's as compared to SMC's. The settings on record: EC's versus SMC's; cited from earlier work.
The subject of series [2] is cells seeded in 96-well microplate. The settings on record: control samples. Here is the method: A potential cytotoxicity study of the electro-grafted coatings is conducted in accordance with the standard ISO 10993-5.
The extraction was performed in triplicate with the culture medium (DMEM) containing fetal calf serum, in sterile, closed, chemically inert containers during 96 h at 37° C.
The extract and its dilutions (50% and 10%) were placed on the cells and left in contact for 24 hours, at least. The cytotoxicity was determined by a vital dye, the neutral red.
The means of determination retained were the general morphology of the cell (qualitative evaluation) and the percentage of cell viability (quantitative evaluation) based on that the absorbance obtain by reading at 540 nm, is proportional to the number of living cells (quantitative analysis).
Positive control: the control was performed for each test with a product which provided a reproducible cytotoxic effect under the conditions of the test: a solution of phenol at 3.2 g/l in culture medium (DMEM). The test complied if the percentage of mortality was about 100%.
The test complied if the percentage of cell viability is 100%.

For the molecule `CC(=O)O[C@H]1C(=O)[C@@]2(C)[C@H]([C@H](OC(=O)c3ccccc3)[C@]3(O)C[C@H](OC(=O)[C@H](O)[C@@H](NC(=O)c4ccccc4)c4ccccc4)C(C)=C1C3(C)C)[C@]1(OC(C)=O)CO[C@@H]1C[C@@H]2O` [Paclitaxel], in series [1], the Threshold toxic concentration entry was “comparable or even lower against EC's as compared to SMC's”.
Take `CO[C@H]1C[C@@H]2CC[C@@H](C)[C@@](O)(O2)C(=O)C(=O)N2CCCC[C@H]2C(=O)O[C@H]([C@H](C)C[C@@H]2CC[C@@H](O)[C@H](OC)C2)CC(=O)[C@H](C)/C=C(\C)[C@@H](O)[C@@H](OC)C(=O)[C@H](C)C[C@H](C)/C=C/C=C/C=C/1C` [Sirolimus]: the Threshold toxic concentration entry in series [1] is “comparable or even lower against EC's as compared to SMC's”.
`Oc1ccccc1` [Positive control, phenol]: in series [2], the Death % stood at 99%, the “Qualitative evaluation (neutral red)” value is recorded as “Cells don't” and the Viability % is 1%.

(Values after patent US20070288088A1, “Drug eluting stent with a biodegradable release layer attached with an electro-grafted primer coating” (priority 2006, published 2007).)
